One assay has as its target Collagenase 3 (Homo sapiens, UniProt P45452). Nature of the assay: Inhibitory activity against matrix metallopeptidase 13.
Assay [1] concerns the target Disintegrin and metalloproteinase domain-containing protein 17 (Homo sapiens, UniProt P78536). Kind of assay: Inhibitory activity against TACE[ADAM metallopeptidase domain 17] in isolated enzyme assay.
The next assay addresses T1, Interstitial collagenase (Homo sapiens, UniProt P03956).
T1 sequence (P03956 whole entry): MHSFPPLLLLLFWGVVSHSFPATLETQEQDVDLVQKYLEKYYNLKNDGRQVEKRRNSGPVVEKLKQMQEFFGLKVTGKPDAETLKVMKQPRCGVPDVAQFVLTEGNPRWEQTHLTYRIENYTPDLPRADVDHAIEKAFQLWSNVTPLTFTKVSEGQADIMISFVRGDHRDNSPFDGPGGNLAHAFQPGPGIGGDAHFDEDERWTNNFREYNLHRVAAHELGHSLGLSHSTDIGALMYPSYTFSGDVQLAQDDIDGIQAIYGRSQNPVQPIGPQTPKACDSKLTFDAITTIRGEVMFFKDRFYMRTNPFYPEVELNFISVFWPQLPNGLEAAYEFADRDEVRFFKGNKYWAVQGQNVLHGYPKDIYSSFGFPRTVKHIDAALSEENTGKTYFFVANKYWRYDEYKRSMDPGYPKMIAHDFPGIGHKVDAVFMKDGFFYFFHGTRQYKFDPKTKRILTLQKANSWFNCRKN
Kind of assay: Inhibitory activity against matrix metallopeptidase 1.

The test system of a further assay is THP-1. Nature of the assay: Percentage inhibition of TNF production in LPS-stimulated THP-1 cells. In kind it is functional, Homo sapiens.

Results on six compounds are retold here after ChEMBL document CHEMBL1141066, “Acetylenic TACE inhibitors. Part 2: SAR of six-membered cyclic sulfonamide hydroxamates” (Bioorg Med Chem Lett, 2005).

One may read the IC50 as the concentration that inhibits the measured activity by half. A word on the Inhibition: it is how much of the control response was suppressed. The low end stands for a response near the control, the high end for a response far below the control.

Molecules are shown by their SMILES.

Chain of Disintegrin and metalloproteinase domain-containing protein 17 (P78536 whole entry, the tested form may be a part): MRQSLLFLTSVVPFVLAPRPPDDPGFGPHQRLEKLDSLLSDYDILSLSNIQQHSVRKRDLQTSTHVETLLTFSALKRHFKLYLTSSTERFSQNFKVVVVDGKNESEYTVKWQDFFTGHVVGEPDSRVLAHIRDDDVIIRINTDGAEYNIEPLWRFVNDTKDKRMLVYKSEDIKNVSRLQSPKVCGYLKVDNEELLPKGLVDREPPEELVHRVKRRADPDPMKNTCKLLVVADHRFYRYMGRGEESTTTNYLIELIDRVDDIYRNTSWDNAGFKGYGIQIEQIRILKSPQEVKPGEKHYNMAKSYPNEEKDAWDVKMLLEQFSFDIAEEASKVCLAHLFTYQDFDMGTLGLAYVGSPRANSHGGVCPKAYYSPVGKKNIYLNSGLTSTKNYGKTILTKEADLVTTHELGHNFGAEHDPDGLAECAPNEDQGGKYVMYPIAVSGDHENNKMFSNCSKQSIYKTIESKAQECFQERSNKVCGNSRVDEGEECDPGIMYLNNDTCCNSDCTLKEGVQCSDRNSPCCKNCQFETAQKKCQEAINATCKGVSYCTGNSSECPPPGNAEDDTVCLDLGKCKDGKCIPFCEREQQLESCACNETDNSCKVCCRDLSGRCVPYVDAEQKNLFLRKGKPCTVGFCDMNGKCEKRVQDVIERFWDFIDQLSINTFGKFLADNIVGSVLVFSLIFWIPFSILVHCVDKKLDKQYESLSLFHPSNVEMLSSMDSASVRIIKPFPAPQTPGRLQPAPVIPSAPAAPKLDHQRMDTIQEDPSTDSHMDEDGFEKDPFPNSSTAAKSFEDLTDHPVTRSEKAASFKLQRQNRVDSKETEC

For `CC#CCOc1ccc(S(=O)(=O)N2CCN(S(C)(=O)=O)CC2C(=O)NO)cc1` (configuration not stated), the IC50 against Collagenase 3 worked out at 6 nM.

In turn, `CC#CCOc1ccc(S(=O)(=O)N2CCOCC2C(=O)NO)cc1` (configuration not stated) had an IC50 in assay [1] of 5 nM.

For `CC#CCOc1ccc(S(=O)(=O)N2CCSCC2C(=O)NO)cc1` (configuration not stated), the IC50 in assay [1] stood at 3 nM. Against the preceding compound, the IC50 is about 1.7-fold lower.

In turn, `CC#CCOc1ccc(S(=O)(=O)N2CCN(C(=O)OC)CC2C(=O)NO)cc1` (configuration not stated) displayed an IC50 against Collagenase 3 of 9 nM.

Take `CC#CCOc1ccc(S(=O)(=O)N2CCSC(C)(C)C2C(=O)NO)cc1` (configuration not stated): on Interstitial collagenase, half-maximal inhibition (IC50) was put at 7 nM. This counts as single-digit nanomolar.

Compound `CC#CCOc1ccc(S(=O)(=O)N2CCNCC2C(=O)NO)cc1` (configuration not stated) came in with an IC50 against Collagenase 3 of 8 nM. In the assay with THP-1, this compound returned an Inhibition of 71%.
